Like-named read-outs stand apart in the source and are kept apart here.
Target: T1, human APJ receptor (Homo sapiens, UniProt P35414)
T1 construct: expressed in transfected cells; host or cells: HEK293
T1 sequence (P35414 1-380): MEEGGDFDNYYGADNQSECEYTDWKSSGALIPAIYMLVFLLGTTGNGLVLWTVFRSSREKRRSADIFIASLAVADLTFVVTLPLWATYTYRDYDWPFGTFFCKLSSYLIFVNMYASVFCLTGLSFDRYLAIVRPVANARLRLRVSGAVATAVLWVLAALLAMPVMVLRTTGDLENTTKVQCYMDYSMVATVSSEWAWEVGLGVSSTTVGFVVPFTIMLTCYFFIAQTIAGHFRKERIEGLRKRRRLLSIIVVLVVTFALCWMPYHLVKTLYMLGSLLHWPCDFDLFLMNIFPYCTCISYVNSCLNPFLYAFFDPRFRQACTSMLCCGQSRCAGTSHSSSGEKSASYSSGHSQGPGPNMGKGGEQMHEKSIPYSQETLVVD
Assay: Intracellular cAMP Accumulation Assay (APJ hcAMP, HTRF)
Assay type: cell-based
Conditions: read-out: hAPJ cAMP EC50 Potency range
In short: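 Stably transfected HEK293 cells (5,000/well) incubated 30 min at room temperature with serially diluted compound, […] and 2 μM forskolin. cAMP measured by HTRF after 60 min with detection reagents, quantified against a cAMP standard curve; EC50 from variable-slope sigmoidal fit of inhibition of forskolin-stimulated cAMP.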

[1] = human APJ, intracellular cAMP accumulation
[2] = human APJ, cAMP accumulation, potency range class

With `CC[C@@H](c1cc(F)cc(F)c1)n1c(-c2nc(C)cs2)nc(=O)c(C(=O)N2CCC(c3cc(F)ccn3)C2)c1O` (single isomer, unassigned) [Example 205] the EC50 [1] was 0.01 to 10 nM.
For `CCOCc1nc(=O)c(C(=O)N2CCC(Oc3cc(F)ccc3Cl)CC2)c(O)n1-c1c(OC)cccc1OC` [Example 378, 5-(4-(2-chloro-5-fluorophenoxy)piperidine-1-carbonyl)-1-(2,6-dimethoxyphenyl)-2-(ethoxymethyl)-6-hydroxypyrimidin-4(1H)-one], the EC50 was 0.01 to 10 nM.
For `CCCCc1nc(=O)c(C(=O)N2CCC(c3ccccc3C#N)C2)c(O)n1-c1c(OC)cccc1OC` (single isomer, unassigned) [Example 364, 2-(1-(2-butyl-1-(2,6-dimethoxyphenyl)-6-hydroxy-4-oxo-1,4-dihydropyrimidine-5-carbonyl)pyrrolidin-3-yl)benzonitrile], the EC50 [2] was 0.01 to 10 nM.
`COc1cccc(OC)c1-n1c(-c2cccc(C)c2)nc(=O)c(C(=O)N2CCC(c3c(F)cccc3F)C2)c1O` (single isomer, unassigned) [Example 241, 5-[3-(2,6-difluorophenyl)pyrrolidine-1-carbonyl]-1-(2,6-dimethoxyphenyl)-6-hydroxy-2-(3-methylphenyl)-1,4-dihydropyrimidin-4-one] was tested, and the EC50 [2] was 0.01 to 10 nM.
Work on `CCCCc1nc(=O)c(C(=O)N2CC[C@H](c3ccccc3)C2)c(O)n1[C@H](C)c1ccccc1` [Example 117, 2-butyl-6-hydroxy-3-[(1R)-1-phenylethyl]-5-[(3R)-3-phenylpyrrolidine-1-carbonyl]-3,4-dihydropyrimidin-4-one] yielded an EC50 [1] of 0.01 to 10 nM.
Compound `CCn1ccc(-c2nc(=O)c(C(=O)N3CCC(c4c(F)cccc4F)C3)c(O)n2-c2c(OC)cccc2OC)n1` (single isomer, unassigned) [Example 276, 5-[3-(2,6-difluorophenyl)pyrrolidine-1-carbonyl]-1-(2,6-dimethoxyphenyl)-2-(1-ethyl-1H-pyrazol-3-yl)-6-hydroxy-1,4-dihydropyrimidin-4-one] has an EC50 [2] of 0.01 to 10 nM.
In the case of `CCCCc1nc(=O)c(C(=O)N2CCC(c3ncc(Cl)cc3F)C2)c(O)n1-c1c(OC)cccc1OC` (single isomer, unassigned) [Example 357, 2-butyl-5-(3-(5-chloro-3-fluoropyridin-2-yl)pyrrolidine-1-carbonyl)-1-(2,6-dimethoxyphenyl)-6-hydroxypyrimidin-4(1H)-one], the EC50 [2] is reported as 0.01 to 10 nM.
Compound `CCc1cccc(CC)c1-n1c(-c2csc(C)n2)nc(=O)c(C(=O)N2CC[C@@H](c3ccccc3)C2)c1O` [Example 303, 1-(2,6-diethylphenyl)-6-hydroxy-2-(2-methyl-1,3-thiazol-4-yl)-5-[(3S)-3-phenylpyrrolidine-1-carbonyl]-1,4-dihydropyrimidin-4-one] has an EC50 [2] of 0.01 to 10 nM.
